Experiments:
[1] = test system: Arabidopsis thaliana seedlings; assay: Root growth assay; format: in vivo; conditions: 10 μM
Experimental: Seedlings were grown on vertically oriented Murashige and Skoog (MS) plates for 4 to 5 days. Afterward, seedlings were transferred to MS supplemented with the indicated concentrations of the different ligands and kept on vertical orientation. Ten days later, the plates were scanned on a flatbed scanner to produce image files suitable for quantitative analysis of root growth using the NIH Image software ImageJ. The experiment was performed in triplicate (n = 13 to 16). Statistical comparisons were performed by either pairwise t tests or one-way ANOVA using GraphPad Prism 9.

[2] = test system: Arabidopsis thaliana plants; assay: IR thermography of leaf temperature, arabidopsis; format: in vivo; conditions: transgenic CsPYL1^5m lines and Col-0, 50 μM, 24 hours after spraying
Experimental: A. thaliana plants were grown in a controlled environment growth chamber at 21°/19°C under 8-hour light/16-hour dark photoperiod at 100 μE m^−2 s^−1. IR thermography images of rosette leaves were acquired with a thermal camera FLIR E95 equipped with a 42° lens, 24 hours after spraying 6-week-old plants with 10 mM MES (pH 5.7) + 0.02% Silwet L-77 plus 50 μM ligand or 0.1% DMSO as a control. Images were processed and quantified with the FLIR tools software. The average temperature of 15 different sections taken from four to six leaves per plant was used for quantification. At least six plants per genotype were analyzed, and the experiments were repeated twice. Statistical analysis was performed using GraphPad Prism 9. T test or ANOVA analysis was carried out to identify statistical significance among datasets.

[3] = test system: Arabidopsis thaliana seedlings (WT Col-0, overexpressing lines, receptor mutants); assay: Seedling establishment assay; format: in vivo
Experimental: Seedling establishment was scored as the percentage of seeds that developed green expanded cotyledons and the first pair of true leaves at 5 or 7 days. Seedling establishment assays in the presence of ABA receptor agonists were performed in 24-well plates, where approximately 25 to 35 seeds per well were sown. Each well contained a different treatment. The experiment was repeated at least twice.

[4] = test system: Nicotiana benthamiana WT plants; assay: IR thermography of leaf temperature, N. benthamiana; format: in vivo; conditions: nontransformed leaves, 24 hours after spraying, 50 μM ABA or 100 μM iSB07 or iSB09, compared to mock
Experimental: IR images were taken using a FLIR […] thermocamera 1 day after the treatment (for N. benthamiana) or 2 and 5 days (for S. lycopersicum). Quantification was performed using the FLIR tools software on fully expanded leaves by analyzing 10 sections per leaf. At least six plants per genotype and treatment were analyzed in each experiment. Experiments were repeated twice. The average plant temperature ± SD of all the plants for each treatment and genotype was calculated and used to report the increase in temperature produced by each treatment. Statistical comparisons among genotypes were performed by either pairwise t tests or one-way ANOVA.

AtHAB1ΔN with CsPYL1^5m = AtHAB1ΔN with CsPYL1^5m (Citrus sinensis, UniProt A0A067E666, F137I/T135L/T153I/V112L/V168A); assay: PP2C inhibition assay, HAB1 with CsPYL1^5m; format: biochemical, Citrus sinensis (CsPYL1^5m); Arabidopsis thaliana (HAB1); conditions: IC50 for inhibition of HAB1 (ΔNHAB1) in the presence of CsPYL1^5m, pNPP as substrate
Chain of AtHAB1ΔN with CsPYL1^5m (A0A067E666 1-209 V112L/T135L/F137I/T153I/V168A): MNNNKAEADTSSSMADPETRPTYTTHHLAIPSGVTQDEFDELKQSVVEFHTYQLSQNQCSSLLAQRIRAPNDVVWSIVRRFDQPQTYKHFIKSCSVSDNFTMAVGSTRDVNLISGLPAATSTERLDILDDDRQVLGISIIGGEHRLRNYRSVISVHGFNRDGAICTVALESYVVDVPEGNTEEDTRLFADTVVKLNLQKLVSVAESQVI
Chain of AtHAB1ΔN with CsPYL1^5m (Q9CAJ0 179-511 partner): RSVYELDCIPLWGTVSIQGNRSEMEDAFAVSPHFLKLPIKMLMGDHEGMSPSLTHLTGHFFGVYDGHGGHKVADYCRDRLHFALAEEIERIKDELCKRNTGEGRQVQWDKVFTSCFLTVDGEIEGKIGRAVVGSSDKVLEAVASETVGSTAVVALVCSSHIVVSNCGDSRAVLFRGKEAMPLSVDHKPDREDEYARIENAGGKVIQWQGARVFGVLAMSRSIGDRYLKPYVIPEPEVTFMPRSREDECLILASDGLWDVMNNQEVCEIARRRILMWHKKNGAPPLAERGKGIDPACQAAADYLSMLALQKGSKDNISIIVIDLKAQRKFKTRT
Experimental: (§1) His-tagged receptors and phosphatases were purified using nickel–nitrilotriacetic acid (Ni-NTA) affinity chromatography. Protein integrity was analyzed by SDS–polyacrylamide gel electrophoresis, followed by InstantBlue staining. Phosphatase activity was measured using p-Nitrophenyl Phosphate (pNPP) (25 mM) as substrate, 10 mM MnCl2,1 μM PP2C, and 2 μM of the indicated receptors. […] Assays were repeated twice. For dose-response experiments, IC50 values were obtained with GraphPad Prism 9 using a nonlinear regression curve fit. Each ligand concentration was tested in triplicate. Phosphatase activity of ABI1 was measured using RRA(phosphoT)VA peptide as a substrate, as described ([27]).

ΔNHAB1 with AtPYL5 = molecular target: T1, ΔNHAB1 with AtPYL5 (Arabidopsis thaliana, UniProt Q9FLB1); assay: PP2C inhibition assay, HAB1 with AtPYL5; format: biochemical; conditions: read-out: inhibition of HAB1
T1 construct: His; made in house
T1 sequence (Q9FLB1 whole entry, stated change not applied): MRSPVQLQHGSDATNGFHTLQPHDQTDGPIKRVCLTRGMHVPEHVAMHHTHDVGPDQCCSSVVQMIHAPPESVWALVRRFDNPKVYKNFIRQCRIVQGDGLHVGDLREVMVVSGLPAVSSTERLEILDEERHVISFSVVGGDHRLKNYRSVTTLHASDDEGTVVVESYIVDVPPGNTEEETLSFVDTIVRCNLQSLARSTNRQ
Experimental: (§2) His-tagged receptors and phosphatases were purified using nickel–nitrilotriacetic acid (Ni-NTA) affinity chromatography. Protein integrity was analyzed by SDS–polyacrylamide gel electrophoresis, followed by InstantBlue staining. Phosphatase activity was measured using p-Nitrophenyl Phosphate (pNPP) (25 mM) as substrate, 10 mM MnCl2,1 μM PP2C, and 2 μM of the indicated receptors. Proteins were incubated with the ligands for 10 min at room temperature. pNPP was then added to start the reactions, and the absorbance at 405 nm was monitored for 20 min in a ViktorX5 plate reader. Assays were repeated twice. For dose-response experiments, IC50 values were obtained with GraphPad Prism 9 using a nonlinear regression curve fit. Each ligand concentration was tested in triplicate. Phosphatase activity of ABI1 was measured using RRA(phosphoT)VA peptide as a substrate, as described ([27]).

ABI1 with CsPYL1^5m = format: biochemical, Citrus sinensis (CsPYL1^5m); Arabidopsis thaliana (ABI1)
Experimental: as §1

[5] = test system: MAPKKK18 promoter-LUC reporter; assay: pMAPKKK18-LUC luciferase reporter assay; format: in vivo, Arabidopsis thaliana; conditions: 100 μM, 6 hours
Experimental: […]18-LUC seedlings were grown in 24-well plates (25 to 35 seeds per well) filled with 1 ml of liquid MS medium for 7 days. MS medium was replaced with fresh medium supplemented with 100 μM D-luciferin, potassium salt (GoldBio), and the indicated treatments with iSB07, iSB09, or ABA. Seedlings were incubated for 6 hours, and luminescence was recorded with a LAS-3000 imager (Fujifilm) equipped with a charge-coupled device camera using 2-min exposures. Eight-bit images were transformed in rainbow false color and quantified using Fiji. The experiment was repeated at least twice.

AtPYL5:ΔNHAB1 = AtPYL5:ΔNHAB1 (Arabidopsis thaliana, UniProt Q9FLB1); assay: Native red electrophoresis of ligand-induced ternary complex
Chain of AtPYL5:ΔNHAB1 (Q9FLB1 whole entry, stated change not applied): as above
Experimental: Electrophoresis was performed at a constant current of 25 mA for 150 min at 4°C. Proteins were detected in gel by InstantBlue staining, and band quantification was performed using the ImageJ software. To obtain apparent Kd values, the proportion of ternary complex formed (fraction bound) and the ABA or iSB09 free concentration in each lane were calculated and plotted as represented in Fig. 3 (E and F). Then, the dose-response curves were fitted to the classical Hill equation using the GraphPad Prism software.

HAB1 with PYR1 = molecular target: T2, HAB1 with PYR1 (Arabidopsis thaliana, UniProt O49686); assay: PP2C inhibition assay, HAB1 with PYR1; format: biochemical; conditions: 1 μM iSB09, PYR1
T2 construct: His; made in house
T2 sequence (O49686 whole entry): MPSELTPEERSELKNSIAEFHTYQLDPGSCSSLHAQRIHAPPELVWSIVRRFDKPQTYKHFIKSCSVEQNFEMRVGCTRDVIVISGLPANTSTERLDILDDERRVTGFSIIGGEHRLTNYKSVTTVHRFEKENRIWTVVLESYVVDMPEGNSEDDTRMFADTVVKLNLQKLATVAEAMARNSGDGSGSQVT
T2 sequence (Q9CAJ0 179-511 partner limits assumed): as the sequence (Q9CAJ0 179-511 partner) above
Experimental: as §2

## CCn1c(=O)cc(C)c2cc(CNS(=O)(=O)c3ccccc3)ccc21 [iSB09]
[1]; CsPYL1^5m lines
  inhibition of root growth: marked inhibition
[1]; WT plants
  inhibition of root growth: did not significantly inhibit
[2]
  leaf temperature by thermal imaging: increased leaf temperature
[3]; WT Col-0
  dosage able to inhibit seedling establishment: 5 µM
[3]; mutants lacking functional PYR1 and PYL1, 10 μM iSB09
  agonist-induced inhibition of seedling establishment: insensitive
[3]; plants that express CsPYL1^5m
  dosage able to inhibit seedling establishment: 0.5 µM
[4]
  leaf temperature by thermal imaging: increased leaf temperature
AtHAB1ΔN with CsPYL1^5m
  IC50: 316 nM
ΔNHAB1 with AtPYL5
  inhibition at 1 µM: 60 to 70%
ABI1 with CsPYL1^5m
  sensitivity of ABI1 relative to HAB1 to iSB09-mediated CsPYL1^5m-dependent inhibition: fivefold more sensitive
[5]
  induction of LUC relative to 25 μM ABA: approximately twofold higher
AtPYL5:ΔNHAB1
  Kd: 1200 nM
HAB1 with PYR1
  inhibition at 1 µM: 60 to 70%

From paper PMC10005185, “Structure-guided engineering of a receptor-agonist pair for inducible activation of the ABA adaptive response to drought” (Science Advances, 2023)
